Data published in patent publication US20040235784A1, “Combination preparations of 3-n-formylhydroxylaminopropyl phosphonic acid derivatives or 3-n-acetylhydroxylaminopropyl phosphonic acid derivatives combined with specific pharmaceutical active agents” (priority 2000, published 2004).

Tested on: Plasmodium falciparum strains Dd2, 3D7 and HB3
Assay: Sensitivity of Plasmodium falciparum to fosmidomycin in combination with different compounds, semi-automatic test by [3H]-hypoxanthin incorporation into parasite DNA
Format: cell-based
Settings: drug in combination with fosmidomycin, sum FIC <1 synergism, >1 antagonism, =1 addition
Description: The IC50-values of fosmidomycin and the respective combination partner were determined for the single compounds and in different ratios of mixture on microtitreplates. The results were defined as sum of fractional inhibitory concentration (sum fractional inhibitory concentration, FIC):
sum FIC=IC50 of fosmidomycin in mixture/IC50 of fosmidomycin alone+IC50 of the combination partners in mixture/IC50 of combination partner alone
Sum FIC-values <1 represent synergism, values >1 antargonism and values=1 addition.

| Structure (SMILES) | sum FIC (P. falciparum strain 3D7) | sum FIC (P. falciparum strain Dd2) | sum FIC (P. falciparum strain HB3) |
| --- | --- | --- | --- |
| CC[C@H]1OC(=O)[C@H](C)[C@@H](O[C@H]2C[C@@](C)(OC)[C@@H](O)[C@H](C)O2)[C@H](C)[C@@H](O[C@@H]2O[C@H](C)C[C@H](N(C)C)[C@H]2O)[C@](C)(O)C[C@@H](C)CN(C)[C@H](C)[C@@H](O)[C@]1(C)O [azithromycin] | 0.74 | 0.86 | 0.85 |
| CCCCN(CCCC)CC(O)c1cc(Cl)cc2c1-c1ccc(Cl)cc1/C2=C/c1ccc(Cl)cc1 (stereo not drawn) [lumefantrin] | 1.21 | 1.20 | 1.08 |
